# Patent US20050249697A1, “Compositions and methods for the inhibition of bone growth and resorption” (priority 2003, published 2005)
# Read-outs that look alike come from different tables or passages of the source.
# Experiments:
# [1] = cited from earlier work
# [2] = cited from earlier work; remark: listed apart in the source
# [3] = Plasma diflunisal in rats after subcutaneous polydiflunisal microspheres or oral diflunisal; format: in vivo; settings: single oral dose
# Excerpt: Processes for making nanoparticle formulations are also known in the art, and need not be fully described in this patent. The surface eroding property of polymers such as polydiflunisal makes for solid, non-porous particles, e.g. nano- and micro-spheres, useful for sustained drug delivery, and their release duration may be controlled by varying particle diameter, e.g. larger microparticles biodegrade more slowly than smaller ones. Nano- and microparticles for pharmaceutical formulations may be designed to deliver an agent(s) or compound(s) incorporated into the monomer, oligomer or polymer backbone and optionally an agent(s) blended, appended to, or dispersed in the polymer. […] Microparticle formulations of about 1, 2, 5, 7.5, 10, 25, 50 to about 10, 15, 30, 50, 75, 100, 250 μm are suitable for use in a pharmaceutical, veterinary or other type of formulations. Similarly, nanoparticle formulations may be administered for various applications, having a particle size about 1, 2, 5, 10 to about 15, 20, 30, 50, 100, 250, 500 nm, or various ranges between any two of these values. […]
# [4] = cited from earlier work; remark: listed apart in the source
# [5] = in vivo; cited from earlier work
# [6] = cited from earlier work; for Plasma Levels: Clinical Use, Anti-Inflammatory Effectiveness; for Plasma half-life: in vivo
# [7] = system: Long Bone Critical Size Defect; assay: Long bone critical size defect model: bone formation and resorption; format: in vivo, Sprague Dawley retired breeder male rats; settings: implant of polymer microspheres containing ≧0.5 g salicylic acid/cm^3 in a femur
# Excerpt: Nineteen (19) Sprague Dawley retired breeder male rats were employed in this experiment. In each animal, a 5 mm mid-shaft defect was created using an oscillating saw. The limbs were then stabilized using a custom 4-hole polymer plate and screws. In two groups of 6 rats each, the defects were filled with either the homopolymer or the copolymer. The remaining 7 rats had their defects filled with a collagen sponge to serve as controls. An equal number of animals from each group was sacrificed at 4 and 8 weeks post surgery. The only exception was that four control rats were used in the 8-week group. The defect sites were radiographed using a Hewlett-Packard Faxitron model 43804 and high resolution mammography film every 2 weeks until sacrifice. At term, the limbs were collected and prepared for non-decalcified histology. Mid-sagittal ground sections were prepared and stained using Sanderson's Rapid Bone Stain and Stevenel's Blue. New bone formed between inner-most fixation screws was measured on 2 slides per animal and averaged. Bone resorption, or loss, was also measured by approximating the original contours of the cortices, and measuring the difference in area relative to the remaining bone.
smiles,measurement,setting,value
CN1CC[C@]23c4c5ccc(O)c4O[C@H]2[C@@H](O)C=C[C@H]3[C@H]1C5 [morphine],pain relief,[1]; 1 mg injected into chronically-inflamed gum tissue,profound pain relief
same,pain relief,[1]; intra-articular injection of 3 mg in RA patients,pain relief similar to that of 4 mg dexamethasone
O=C(O)CCC(=O)O [Succinic Acid],Rat Oral LD50,"[2]; in vivo, po","8,530 mg/kg"
"O=C(O)c1cc(-c2ccc(F)cc2F)ccc1O [Diflunisal, 5-(2,4-difluoro-phenyl) salicylic acid]",plasma drug level after dosing,[3],declined rapidly
same,Water Solubility,[4],Very Low
same,LD50,[5],439 mg/kg
same,Plasma Levels,[6],50 to 190 µg/mL
same,No. Metabolites,[6]; Metabolism,2
same,Where Metabolized,[6]; Metabolism,"Liver, Intestine"
same,Plasma half-life,[6],8 to 12 h
O=C(O)CCCCCCCCC(=O)O [Sebacic Acid],Rat Oral LD50,[2]; oral,"14,470 mg/kg"
O=C(O)c1ccccc1O [Salicylic Acid],effect of local delivery at site of bone defect or injury,[7],"prevents new bone growth, degradation and resorption"
same,Water Solubility,[4],High
same,Plasma Levels,[6],150 to 300 µg/mL
same,Plasma half-life,[6],2.5 h
